According to patent publication US9274101B2 (BIOLOG, Inc., priority 2001, dated 2016):

Columns and labels:
Assay type in all cases: cell-based, human
[1] = system: DMSO-differentiated HL-60 cells; assay: Energy use by DMSO-differentiated HL-60 cells
Description: In this Example, methods for testing in vitro-differentiated cells for their ability to use multiple energy sources are described. Prior to differentiation, HL-60 cells were cultured as described in Example 27. DMSO-induced differentiation (Odani et al., Res. Commun. Mol. Pathol. Pharmacol. 108:381-391 [2000]; and Yamaguchi et al., Biol. Pharm. Bull. 20:943-947 [1997]) was accomplished by incubation of the cells in the presence of 1.25% DMSO for 3 days.
After washing, HL-60 cells were resuspended in DME-R. An aliquot of the cell suspension was counted by trypan blue exclusion and the cell density was adjusted to 6.67×10^5/mL. Fifty μL of DME-R were added to each well of the appropriate number of half area, 96-well plates, followed by 25 μL of the appropriate dilution of each test energy source. Stocks of 133 mM of each test chemical were prepared in tissue culture grade water, sterile filtered, and dilutions were prepared in a master plate so that, upon dilution into a half-area 96-well microtiter plate to a total well volume of 150 μL, the final concentrations would be 0.033 to 20 mM. Negative control wells received 25 μL of tissue culture grade water. The cells were plated at a volume of 75 μL/well, giving a final cell density of 5×10^4/well. For each plate containing energy sources and cells, a second, control plate containing only energy sources was prepared with the same total volume of liquid (148 μL/well). Plates were incubated at 5% CO2, 90-100% humidity, and 37° C. for 24 hours prior to addition of the MTS/MPMS calorimetric reagent (7.5 μL/well). The color formed in each well 24 hours after addition of the colorimetric reagent, was measured with a plate reader at 490 nm with a reference wavelength of 650 nm. OD values from the control plate were subtracted from the OD values obtained with cells prior to normalizing the data to % negative control (cells without added energy source).

HepG2 cells = HepG2 cells on flat bottom plastic wells, energy sources at a range of concentrations
Description: In this Example, methods for testing adherent cells for their ability to use multiple carbon sources are described. The human hepatocellular carcinoma cell line known as HepG2 (Knowles et al., Science, 209:497-499 [1980]) was chosen for this experiment. However, this application is not intended to be limited to the use of HepG2 cells, hepatocytes, carcinoma cells or even human cells.
HepG2 cells were grown in Falcon tissue culture flasks with vented tops. The culture medium used was Minimal Essential medium (MEM, Invitrogen 11095) with 1 g/L glucose, 2 mM L-glutamine, 2.2 g/L sodium bicarbonate, 10 mg/L phenol red, and supplemented with 0.1 mM Nonessential Amino Acids, 1 mM sodium pyruvate, 50 U/mL penicillin, 50 μg/mL streptomycin, and 10% (v/v) heat inactivated fetal bovine serum (HI FBS, Invitrogen 16140). The cells were seeded at 2×10^4/cm^2 and used 3 days after initiation of culture. During all incubations, the cells were kept in an atmosphere of 5% CO2, 90-100% humidity, and 37° C. Cells were harvested by trypsinization for 3 minutes in 0.25% trypsin-1 mM EDTA and resuspended in an equal volume of culture medium. A viable cell count was obtained by trypan blue exclusion and an appropriate volume of the cell suspension (to have 33% more viable cells than was sufficient for the experiment) was placed in a polypropylene centrifuge tube. Cells were pelleted by centrifugation at 350×g for 10 minutes at room temperature, resuspended in Dulbecco's Phosphate Buffered Saline (D-PBS, Invitrogen 14040) and centrifuged a second time. Cells were then resuspended to two-thirds the final volume needed in Dulbecco' ? s Modified Eagle's Medium (DME, Sigma D5030) containing 10% HI FBS and penicillin-streptomycin but without glucose, L-glutamine, sodium pyruvate, and phenol red. An aliquot was counted by trypan blue exclusion and the cell density was adjusted to 1.28×10^5/mL. Cells were plated in 100 μL/well in wells of standard, 96-well plates (4×10^4 cells/cm^2) and allowed to adhere overnight prior to addition of test chemicals.
For assay, the culture medium was aspirated, the wells were washed once with D-PBS and 170 μL of DME were added to each well, followed by 30 μL of the appropriate dilution of each test energy source. Stocks of 133 mM of each test chemical were prepared in tissue culture grade water, sterile filtered, and dilutions were prepared in a master plate so that, upon dilution into a regular 96-well MICROPLATE a total well volume of 200 μL, the final concentrations would be 0.033 to 20 mM. Negative control wells received 30 μL of tissue culture grade water. For each plate containing energy sources and cells, a second, control plate containing only energy sources was prepared. Plates were incubated at 5% CO2, 90-100% humidity, and 37° C. for 48 to 72 hours prior to addition of the MTS/PMS colorometric reagent (10 μL/well). The color formed in each well 4-24 hours after addition of the calorimetric reagent, was measured with a plate reader at 490 nm with a reference wavelength of 650 nm. OD values from the control plate were subtracted from the OD values obtained with cells prior to normalizing the data to % negative control (cells without added energy source).

HL-60 cells = assay: Effect of 10 mM citric acid on HL-60 energy utilization; conditions: negative control without energy sources and without citric acid
[2] = energy source 0.03 mM with 10 mM citric acid
[3] = energy source 0.10 mM with 10 mM citric acid
[4] = energy source 0.33 mM with 10 mM citric acid
[5] = energy source 1.00 mM with 10 mM citric acid
[6] = energy source 3.3 mM with 10 mM citric acid
[7] = energy source 10 mM with 10 mM citric acid
[8] = energy source 15 mM with 10 mM citric acid
[9] = energy source 20 mM with 10 mM citric acid

Cc1cn([C@H]2C[C@H](O)[C@@H](CO)O2)c(=O)[nH]c1=O [Thymidine]
energy source use in words ([1]; DMSO-differentiated HL-60 cells): able to utilize thymidine at concentrations of 0.1-15 mM | activity at 30 µM ([1]; Homo sapiens, HL-60, 24 h, Conc. 0.03 mM, read-out: Energy Use by DMSO-Differentiated HL-60 Cells): 96% | activity at 100 µM ([1]; Homo sapiens, HL-60, 24 h, Conc. 0.10 mM, read-out: Energy Use by DMSO-Differentiated HL-60 Cells): 112% | activity at 330 µM ([1]; Homo sapiens, HL-60, 24 h, Conc. 0.33 mM, read-out: Energy Use by DMSO-Differentiated HL-60 Cells): 143% | activity at 1000 µM ([1]; Homo sapiens, HL-60, 24 h, Conc. 1.00 mM, read-out: Energy Use by DMSO-Differentiated HL-60 Cells): 165% | activity at 3300 µM ([1]; Homo sapiens, HL-60, 24 h, Conc. 3.3 mM, read-out: Energy Use by DMSO-Differentiated HL-60 Cells): 173% | activity at 10000 µM ([1]; Homo sapiens, HL-60, 24 h, Conc. 10 mM, read-out: Energy Use by DMSO-Differentiated HL-60 Cells): 160% | activity at 15000 µM ([1]; Homo sapiens, HL-60, 24 h, Conc. 15 mM, read-out: Energy Use by DMSO-Differentiated HL-60 Cells): 160% | activity at 20000 µM ([1]; Homo sapiens, HL-60, 24 h, Conc. 20 mM, read-out: Energy Use by DMSO-Differentiated HL-60 Cells): 103% | activity at 30 µM (HepG2 cells; Homo sapiens, HepG2, 72 h, Conc. 0.03 mM, read-out: HepG2 Cells Responses After 72 hours in Culture and a 4 hour Color Development Period): 115% | activity at 100 µM (HepG2 cells; Homo sapiens, HepG2, 72 h, Conc. 0.10 mM, read-out: HepG2 Cells Responses After 72 hours in Culture and a 4 hour Color Development Period): 158% | activity at 330 µM (HepG2 cells; Homo sapiens, HepG2, 72 h, Conc. 0.33 mM, read-out: HepG2 Cells Responses After 72 hours in Culture and a 4 hour Color Development Period): 180% | activity at 1000 µM (HepG2 cells; Homo sapiens, HepG2, 72 h, Conc. 1.00 mM, read-out: HepG2 Cells Responses After 72 hours in Culture and a 4 hour Color Development Period): 150% | activity at 3300 µM (HepG2 cells; Homo sapiens, HepG2, 72 h, Conc. 3.3 mM, read-out: HepG2 Cells Responses After 72 hours in Culture and a 4 hour Color Development Period): 135% | activity at 10000 µM (HepG2 cells; Homo sapiens, HepG2, 72 h, Conc. 10 mM, read-out: HepG2 Cells Responses After 72 hours in Culture and a 4 hour Color Development Period): 114% | activity at 15000 µM (HepG2 cells; Homo sapiens, HepG2, 72 h, Conc. 15 mM, read-out: HepG2 Cells Responses After 72 hours in Culture and a 4 hour Color Development Period): 101% | activity at 20000 µM (HepG2 cells; Homo sapiens, HepG2, 72 h, Conc. 20 mM, read-out: HepG2 Cells Responses After 72 hours in Culture and a 4 hour Color Development Period): 134% | Effect of 10 mM Citric Acid on HL-60 Energy Utilization (HL-60 cells; [2]): 5.2 % of negative control | Effect of 10 mM Citric Acid on HL-60 Energy Utilization (HL-60 cells; [3]): 18.9 % of negative control | Effect of 10 mM Citric Acid on HL-60 Energy Utilization (HL-60 cells; [4]): 12.4 % of negative control | Effect of 10 mM Citric Acid on HL-60 Energy Utilization (HL-60 cells; [5]): 22.1 % of negative control | Effect of 10 mM Citric Acid on HL-60 Energy Utilization (HL-60 cells; [6]): 27.9 % of negative control | Effect of 10 mM Citric Acid on HL-60 Energy Utilization (HL-60 cells; [7]): 31.0 % of negative control | Effect of 10 mM Citric Acid on HL-60 Energy Utilization (HL-60 cells; [8]): 20.9 % of negative control | Effect of 10 mM Citric Acid on HL-60 Energy Utilization (HL-60 cells; [9]): 64.8 % of negative control

O=C1O[C@H]([C@@H](O)CO)[C@@H](O)[C@@H]1O [L-gal acid g-lactone]
Energy Use by DMSO-Differentiated HL-60 Cells ([1]; Conc. 0.03 mM): 113.9 % of negative control | Energy Use by DMSO-Differentiated HL-60 Cells ([1]; Conc. 0.10 mM): 129.2 % of negative control | Energy Use by DMSO-Differentiated HL-60 Cells ([1]; Conc. 0.33 mM): 137.5 % of negative control | Energy Use by DMSO-Differentiated HL-60 Cells ([1]; Conc. 1.00 mM): 155.4 % of negative control | Energy Use by DMSO-Differentiated HL-60 Cells ([1]; Conc. 3.3 mM): 178.2 % of negative control | Energy Use by DMSO-Differentiated HL-60 Cells ([1]; Conc. 10 mM): 171.1 % of negative control | Energy Use by DMSO-Differentiated HL-60 Cells ([1]; Conc. 15 mM): 131.1 % of negative control | Energy Use by DMSO-Differentiated HL-60 Cells ([1]; Conc. 20 mM): 98.1 % of negative control | HepG2 Cells Responses After 72 hours in Culture and a 4 hour Color Development Period (HepG2 cells; Conc. 0.03 mM): 121.2 % of negative control | HepG2 Cells Responses After 72 hours in Culture and a 4 hour Color Development Period (HepG2 cells; Conc. 0.10 mM): 127.4 % of negative control | HepG2 Cells Responses After 72 hours in Culture and a 4 hour Color Development Period (HepG2 cells; Conc. 0.33 mM): 196.4 % of negative control | HepG2 Cells Responses After 72 hours in Culture and a 4 hour Color Development Period (HepG2 cells; Conc. 1.00 mM): 164.1 % of negative control | HepG2 Cells Responses After 72 hours in Culture and a 4 hour Color Development Period (HepG2 cells; Conc. 3.3 mM): 172.8 % of negative control | HepG2 Cells Responses After 72 hours in Culture and a 4 hour Color Development Period (HepG2 cells; Conc. 10 mM): 181.5 % of negative control | HepG2 Cells Responses After 72 hours in Culture and a 4 hour Color Development Period (HepG2 cells; Conc. 15 mM): 215.1 % of negative control | HepG2 Cells Responses After 72 hours in Culture and a 4 hour Color Development Period (HepG2 cells; Conc. 20 mM): 231.2 % of negative control | Effect of 10 mM Citric Acid on HL-60 Energy Utilization (HL-60 cells; [2]): 16.2 % of negative control | Effect of 10 mM Citric Acid on HL-60 Energy Utilization (HL-60 cells; [3]): 18.2 % of negative control | Effect of 10 mM Citric Acid on HL-60 Energy Utilization (HL-60 cells; [4]): 19.7 % of negative control | Effect of 10 mM Citric Acid on HL-60 Energy Utilization (HL-60 cells; [5]): 38.6 % of negative control | Effect of 10 mM Citric Acid on HL-60 Energy Utilization (HL-60 cells; [6]): 188.9 % of negative control | Effect of 10 mM Citric Acid on HL-60 Energy Utilization (HL-60 cells; [7]): 138.4 % of negative control | Effect of 10 mM Citric Acid on HL-60 Energy Utilization (HL-60 cells; [8]): 122.4 % of negative control | Effect of 10 mM Citric Acid on HL-60 Energy Utilization (HL-60 cells; [9]): 111.5 % of negative control
